Test results published in US11377466B2, “Analogs of the natural product icariin” (Whitehead Institute for Biomedical Research, priority 2018, dated 2022).
Like-named read-outs stand apart in the source and are kept apart here. Values belong to the compound of their own block, whether it stands above or below them.

Key:
human PDE5 [1] = molecular target: T1, human PDE5 (Homo sapiens, UniProt O76074); conditions: reported by Dell'Agli et al.; COS-7 lysate expressing human PDE5; cited from earlier work
T1 construct: host or cells: COS-7 cells (lysate), transfected with human PDE5

[2] = molecular target: T2, purified recombinant human PDE5 (Homo sapiens, UniProt O76074); assay: In vitro PDE5 inhibition assay (GMP production from cGMP, LC-MS); format: biochemical; conditions: for IC50: cGMP at 1/10 of Km
T2 construct: purchased Abcam AB125581
Description: To evaluate the nine icariin analogs, the IC50 of each analog, icariin, and sildenafil were measured in an in vitro PDE5 inhibition assay, which measures GMP production from cGMP by purified recombinant human PDE5. Table 1 summarizes the IC50 values obtained for the nine icariin analogs tested. Fold improved potency in Table 1 refers to fold change in IC50 compared to icariin.
[…]. […] PDE5 (purified recombinant human PDE5 purchased from Abcam, Product No. AB125581) was added to start the reaction. The reaction was at room temperature until approximately 10-15% of cGMP in uninhibited control reactions was consumed. Keeping cGMP concentration low and staying within a linear reaction ensured that the reaction remained within Michaelis-Menten model assumptions and that the IC50 could be approximated to the inhibition constant or Ki (as substrate concentration decreases, IC50 value approaches Ki value). The reaction was stopped with the addition of 0.1 M hydrochloric acid. The amount of GMP produced was measured by LC-MS.

SKMEL-5 cells = assay: Cytotoxicity measured by resazurin, SKMEL-5; format: cell-based; conditions: Homo sapiens, SK-MEL-5, 0-10 μM
Description: (§1) A general feature of compounds with promise as viable therapeutics is a lack of toxicity to human cells. To test the icariin analogs for this feature, each analog was assayed against a panel of five human cell lines for cytotoxicity. The five human cell lines represent various tissue types—normalized, untransformed epithelial cells derived from fetal foreskin, neuroblastoma, melanoma, prostate, and lung. A Western blot against PDE5 confirmed that all five cell lines express PDE5 protein (data not shown). Compounds 2-7 were assayed at concentrations ranging from 0-10 μM, ensuring that all compounds remained soluble. […]

BJHTERT+ cells = assay: Cytotoxicity measured by resazurin, BJHTERT+ (BjH+); format: cell-based; conditions: Homo sapiens, 0-10 μM
Description: as §1

H187 cells = assay: Cytotoxicity measured by resazurin, H187; format: cell-based; conditions: Homo sapiens, NCI-H187, 0-10 μM
Description: as §1

[3] = system: panel of five human cell lines; assay: Cytotoxicity against a panel of five human cell lines (resazurin); format: cell-based; conditions: 2 and 4: two out of five cell lines, 6: three out of five cell lines, 0-10 μM, read-out: IC50 of toxicity in the affected cell lines
Description: as §1

human PDE5 [4] = molecular target: T1, human PDE5; conditions: competitive inhibitor of human PDE5; previous work; cited from earlier work
[5] = system: cavernous smooth muscle cells; conditions: cavernous smooth muscle cells isolated from icariin-treated mice; cited from earlier work
[6] = purified recombinant human PDE5

- Ki ([2]; enzyme kinetics, purified recombinant human PDE5): 36 ± 5 nM
- IC50 [2, 6]: 83 ± 10 nM
Structure (SMILES): COc1ccc(-c2oc3c(CC=C(C)C)c(O[C@@H]4O[C@H](CO)[C@@H](O)[C@H](O)[C@H]4O)cc(O)c3c(=O)c2OCCO)cc1 [Compound 3]

- IC50 [2, 6]: 500 ± 100 nM
Structure (SMILES): COc1ccc(-c2oc3c(CC=C(C)C)c(O[C@@H]4O[C@H](CO)[C@@H](O)[C@H](O)[C@H]4O)cc(O)c3c(=O)c2OCC(C)O)cc1 (stereo partly shown) [Compound 5]

Further lines, the compound ahead of its results:

Structure (SMILES): COc1ccc(-c2oc3c(CC=C(C)C)c(O)cc(O)c3c(=O)c2O[C@@H]2O[C@H](C)[C@@H](O)[C@H](O)[C@@H]2O)cc1 [Compound 1, icariside II]
- IC50 (human PDE5 [1]): 160 nM

Structure (SMILES): COc1ccc(-c2oc3c(CC=C(C)C)c(O)cc(O)c3c(=O)c2OCCO)cc1 [Compound 6]
- IC50 (SKMEL-5 cells): 4.45 µM
- IC50 (BJHTERT+ cells): 6.73 µM
- IC50 (H187 cells): 5.92 µM
- IC50 [3]: 4000 to 7000 nM

Structure (SMILES): COc1ccc(-c2oc3c(CC=C(C)C)c(O)cc(O)c3c(=O)c2O)cc1 [Compound 9, icaritin]
- IC50 [2, 6]: 1800 ± 800 nM

Structure (SMILES): COc1ccc(-c2oc3c(CC=C(C)C)c(O[C@@H]4O[C@H](CO)[C@@H](O)[C@H](O)[C@H]4O)cc(O)c3c(=O)c2O[C@@H]2O[C@@H](C)[C@H](O)[C@@H](O)[C@H]2O)cc1 [icariin]
- Field improved potency ([2]; fold change in IC50 compared to icariin): 1
- IC50 [2, 6]: 6000 ± 1000 nM
- IC50 (human PDE5 [4]): 1000 to 6000 nM
- cGMP levels [5]: increase cGMP levels
